Laboratory results from BindingDB's records for doi:10.1016/s0960-894x(02)00102-6 (Schering-Plough Research Institute, 2002).

Assay: Michaelis-Menten constant was determined against Hepatitis C virus NS3 protease and represented as Km

CCCN(NC(=O)[C@H]1CCCN1C(=O)[C@@H](NC(=O)[C@@H](NC(=O)[C@H](CC(=O)O)NC(=O)[C@H](CCC(=O)O)NC(=O)[C@@H](NC(C)=O)[C@@H](C)O)C(C)C)C(C)C)C(=O)Oc1ccc([N+](=O)[O-])cc1 [Azapeptide]
Ki: 8 µM
